# Reference: patent publication US20250345459A1, “COMPOUND OR SALT THEREOF, LIPID COMPOSITION, PHARMACEUTICAL COMPOSITION, AND DELIVERY CARRIER” (FUJIFILM Corporation, priority 2023, published 2025)
# Assays:
# [1] = Particle size of EPO mRNA-encapsulating lipid nanoparticles; format: physicochemical; conditions: mixed solution PBS
# Experimental: (§1) The compounds described in Table 1, the neutral lipid, cholesterol (product name: Cholesterol HP; NIPPON FINE CHEMICAL CO., LTD.), and 1,2-dimyristoyl-rac-glycero-3-(methylpolyoxyethylene 2000) (hereinafter, called DMG-PEG2000) (product name: SUNBRIGHT® GM-020; NOF corporation) were dissolved in ethanol at a molar ratio of ionized lipid:neutral lipid:cholesterol:DMG-PEG2000=50:10:38.5:1.5 mol % such that the total lipid concentration was 12.5 mmol/L, to obtain an oil phase.
# (§2) As the neutral lipid, 1,2-distearoyl-sn-glycero-3-phosphocholine (product name: COATSOME® MC-8080; NOF corporation) (hereinafter, DSPC), or L-α-dioleoylphosphatidylethanolamine (hereinafter, DOPE) (product name: COATSOME® MC-8181; NOF corporation) was used.
# (§3) EPO mRNA (product name: CleanCap EPO mRNA (5 moU); TriLink) was diluted with 50 mmol/L citrate buffer having a pH 4.0 such that the weight ratio of total lipid concentration to mRNA concentration is about 20:1 to 64:1, thereby obtaining a water phase. Then, the water phase and the oil phase were mixed together using NanoAssemblr (Precision NanoSystems) such that the volume ratio of water phase:oil phase was 3:1. The mixed solution was diluted 2-fold with any of phosphate buffered physiological saline (PBS), water, or a 20 mmol/L Tris buffer solution (pH 7.4) to obtain a dispersion liquid of mRNA lipid nanoparticles. The dispersion liquid was dialyzed with 20 mmol/L Tris buffer solution (pH 7.4) containing 8% sucrose using a dialysis cassette (Slide-A-Lyzer G2, MWCO: 10 kD, Thermo Fisher Scientific) to remove ethanol, thereby obtaining EPO mRNA-encapsulating lipid nanoparticles.
# The particle size of the mRNA-encapsulating lipid nanoparticles was measured by 5-fold diluting the dispersion liquid of lipid nanoparticle with phosphate buffered physiological saline (PBS) using a particle size measurement device NanoSaqla (Otsuka Electronics Co., Ltd.).
# EPO mRNA = experiment: mRNA encapsulation rate of mRNA lipid nanoparticles; format: physicochemical; conditions: mixed solution PBS
# Experimental: as §1, §2, §3
# EPO mRNA was diluted with MilliQ water to prepare a diluted sample in 2-fold dilution series from 100 µg/mL to […], and a calibration curve solution was prepared. 50 μL of the calibration curve solution or the mRNA lipid nanoparticles was mixed with 450 μL of methanol to prepare a measurement solution.
# The absorbance of each measurement solution at 260 nm and 330 nm was measured using a UV plate reader (Multiskan Go, Thermo Fisher Scientific), the absorbance at 330 nm was subtracted from the absorbance at 260 nm, and the result was defined as the absorbance of each measurement solution. The total […] nucleic acid concentration was calculated from the calibration curve using the absorbance of each sample measurement solution.
# The concentration of the outer water phase nucleic acid was quantified by a standard addition method using a QuanT-iT RiboGreen RNA Assay Kit (Thermo Fisher Scientific). First, a 20× TE buffer included in the above kit was diluted with water, thereby obtaining a 1×TE buffer. TE represents Tris/EDTA (ethylenediaminetetraacetic acid). EPO mRNA was diluted with a TE buffer such that the final concentration was 0 to 400 ng/mL to prepare a nucleic acid diluted series. 10 μL of mRNA lipid nanoparticles diluted 5-fold with TE buffer and 90 µL of a nucleic acid dilution series were mixed in a 96-well plate, 100 μL of a Ribogreen reagent diluted 200-fold with TE buffer was added to each well, and then fluorescence (excitation wavelength: 485 nm, fluorescence wavelength: 535 nm) was measured using a fluorescence plate reader (Infinite 200 Pro M nano+, TECAN). From the obtained results, the outer water phase nucleic acid concentration of each measurement solution was calculated according to the standard addition method.
# By using the quantification results of the total mRNA concentration and the mRNA concentration in the outer water phase that were obtained through the above steps, the mRNA encapsulation rate of the mRNA lipid nanoparticles was calculated according to the following Equation. […]
# ICR mice = experiment: EPO protein expression in mice after intravenous EPO mRNA lipid nanoparticles; format: in vivo; conditions: mRNA 0.1 mg/kg, plasma 6 hours after administration
# Experimental: as §1, §2, §3
# The dispersion liquid of mRNA lipid nanoparticles prepared in above <Preparation of EPO mRNA-encapsulating lipid nanoparticles> was intravenously administered to ICR mice at a mRNA dosage of 0.1 mg/kg. 6 hours after the administration, blood was collected from the caudal vena cava, thereby obtaining plasma. The human EPO […] was quantified by using the obtained blood plasma and Erythropoietin (EPO) Human Elisa Kit (Abcam.plc). The quantitative value is described as a relative amount of EPO protein in a case where Comparative Example 1 is 1.
# [2] = LNP with neutral lipid DSPC, Lipid/Nucleic acid (wt/wt) 20
# [3] = neutral lipid DSPC, Lipid/Nucleic acid (wt/wt) 20, Comparative Example 1 is 1
# [4] = LNP with neutral lipid DOPE, Lipid/Nucleic acid (wt/wt) 64
# [5] = neutral lipid DOPE, Lipid/Nucleic acid (wt/wt) 64, Comparative Example 1 is 1
Compound,"Particle size (nm) [1, 2]",Nucleic acid encapsulation rate (%) (EPO mRNA; [2]),Relative amount of EPO protein (to Comparative Example 1) (ICR mice; [3]),"Particle size (nm) [1, 4]",Nucleic acid encapsulation rate (%) (EPO mRNA; [4]),Relative amount of EPO protein (to Comparative Example 1) (ICR mice; [5])
"CCCCCCCCN(CCCCCCCCCC(=O)OCC(CCCCCC)CCCCCC)C(=O)OCCN(CCOC(=O)CCCCCCC)CCN(CC)CC [Comparative Example 1, 2-hexyloctyl 3-ethyl-6-(2-(octanoyloxy)ethyl)-11-octyl-10-oxo-9-oxa-3,6,11-triazahenicosan-21-oate, reference compound]",206 nm,62%,1.00,–,–,–
"CCCCCCCCN(CCCCCCCC)C(=O)OCCN(CCOC(=O)N(CCCCCCCC)CCCCCCCC)CCN(CC)CC [Example 1, ((2-(diethylamino)ethyl)azanediyl)bis(ethan-2,1-diyl)bis(dioctylcarbamate)]",–,–,–,88.6 nm,>99%,21.60
"CCCCCCCCN(CCCCC(=O)OCC(CCCCCC)CCCCCC)C(=O)OCCN(CCOC(=O)N(CCCCCCCC)CCCCC(=O)OCC(CCCCCC)CCCCCC)CCN(CC)CC [Example 2, bis(2-hexyloctyl) 11-(2-(diethylamino)ethyl)-6,16-dioctyl-7,15-dioxo-8,14-dioxa-6,11,16-triazahenicosanedioate]",82 nm,94%,6.70,95.6 nm,99%,24.57
"CCCCCCCCN(CCCCC(=O)OCC(CCCCC)CCCCC)C(=O)OCCN(CCOC(=O)N(CCCCCCCC)CCCCC(=O)OCC(CCCCC)CCCCC)CCN(CC)CC [Example 3, Bis(2-pentylheptyl) 11-(2-(diethylamino)ethyl)-6,16-dioctyl-7,15-dioxo-8,14-dioxa-6,11,16-triazahenicosanedioate]",78 nm,94%,6.15,94.5 nm,99%,13.55
"CCCCCC(CCCCC)COC(=O)CCN(CCCC)C(=O)OCCN(CCOC(=O)N(CCCC)CCC(=O)OCC(CCCCC)CCCCC)CCN(CC)CC [Example 6, Bis(2-pentylheptyl) 4,14-dibutyl-9-(2-(diethylamino)ethyl)-5,13-dioxo-6,12-dioxa-4,9,14-triazaheptadecanedioate]",183 nm,58%,–,–,–,–
"CCCCCC(CCCCC)COC(=O)CCN(CCCC)C(=O)OCCN(CCCN(CC)CC)CCOC(=O)N(CCCC)CCC(=O)OCC(CCCCC)CCCCC [Example 7, Bis(2-pentylheptyl) 4,14-dibutyl-9-(3-(diethylamino)propyl)-5,13-dioxo-6,12-dioxa-4,9,14-triazaheptadecanedioate]",215 nm,73%,–,–,–,–
"CCCCCCCCCC(=O)OCCN(CCOC(=O)CCCCCCCCC)C(=O)OCCN(CCOC(=O)N(CCOC(=O)CCCCCCCCC)CCOC(=O)CCCCCCCCC)CCN(CC)CC [Example 12, 2-(2-(2-(bis(2-decanoyloxyethyl)carbamoyloxy)ethyl-(2-(diethylamino)ethyl)amino)ethoxycarbonyl-(2-decanoyloxyethyl)amino)ethyl decanoate]",169 nm,62%,–,–,–,–
"CCCCCC(CCCCC)COC(=O)CCCCN(C(=O)OCCN(CCOC(=O)N(CCCCC(=O)OCC(CCCCC)CCCCC)C(C)C)CCN(CC)CC)C(C)C [Example 13, Bis(2-pentylheptyl) 11-(2-(diethylamino)ethyl)-6,16-diisopropyl-7,15-dioxo-8,14-dioxa-6,11,16-triazahenicosanedioate]",188 nm,88%,–,–,–,–
"CCCCCC(CCCCC)COC(=O)CCCCN(C(=O)OCCN(CCCN(CC)CC)CCOC(=O)N(CCCCC(=O)OCC(CCCCC)CCCCC)C(C)C)C(C)C [Example 14, Bis(2-pentylheptyl) 11-(3-(diethylamino)propyl)-6,16-diisopropyl-7,15-dioxo-8,14-dioxa-6,11,16-triazahenicosanedioate]",185 nm,97%,–,–,–,–
"CCCCCC(CCCCC)COC(=O)CCCCN(CCC)C(=O)OCCN(CCOC(=O)N(CCC)CCCCC(=O)OCC(CCCCC)CCCCC)CCN(CC)CC [Example 15, Bis(2-pentylheptyl) 11-(2-(diethylamino)ethyl)-7,15-dioxo-6,16-dipropyl-8,14-dioxa-6,11,16-triazahenicosanedioate]",238 nm,79%,–,–,–,–
"CCCCCC(CCCCC)COC(=O)CCCCN(CCC)C(=O)OCCN(CCCN(CC)CC)CCOC(=O)N(CCC)CCCCC(=O)OCC(CCCCC)CCCCC [Example 16, Bis(2-pentylheptyl) 11-(3-(diethylamino)propyl)-7,15-dioxo-6,16-dipropyl-8,14-dioxa-6,11,16-triazahenicosanedioate]",187 nm,93%,–,–,–,–
"CCCCCC(CCCCC)COC(=O)CCCCN(CC(C)C)C(=O)OCCN(CCOC(=O)N(CCCCC(=O)OCC(CCCCC)CCCCC)CC(C)C)CCN(CC)CC [Example 18, Bis(2-pentylheptyl) 11-(2-(diethylamino)ethyl)-6,16-diisobutyl-7,15-dioxo-8,14-dioxa-6,11,16-triazahenicosanedioate]",224 nm,43%,–,–,–,–
"CCCCCC(CCCCC)COC(=O)CCCCN(CCCC)C(=O)OCCN(CCOC(=O)N(CCCC)CCCCC(=O)OCC(CCCCC)CCCCC)CCN(CC)CC [Example 21, Bis(2-pentylheptyl) 6,16-dibutyl-11-(2-(diethylamino)ethyl)-7,15-dioxo-8,14-dioxa-6,11,16-triazahenicosanedioate]",230 nm,64%,–,–,–,–
"CCCCCCCCCCCCOC(=O)CN(CC(=O)OCCCCCCCCCCCC)C(=O)OCCN(CCOC(=O)N(CC(=O)OCCCCCCCCCCCC)CC(=O)OCCCCCCCCCCCC)CCN(CC)CC [Example 32, didodecyl 8-(2-(diethylamino)ethyl)-3,13-bis(2-(dodecyloxy)-2-oxoethyl)-4,12-dioxo-5,11-dioxa-3,8,13-triazapentadecanedioate]",203 nm,60%,–,–,–,–
"CCCCCCCCCCCCCOC(=O)CN(CC(=O)OCCCCCCCCCCCCC)C(=O)OCCN(CCOC(=O)N(CC(=O)OCCCCCCCCCCCCC)CC(=O)OCCCCCCCCCCCCC)CCN(CC)CC [Example 34, Ditridecyl 8-(2-(diethylamino)ethyl)-4,12-dioxo-3,13-bis(2-oxo-2-(tridecyloxy)ethyl)-5,11-dioxa-3,8,13-triazapentadecanedioate]",332 nm,33%,–,–,–,–
